Measured values as given in patent US8722674B2, “1,3,5-triazine-2,4,6-triamine compound or pharmaceutical acceptable salt thereof, and pharmaceutical composition comprising the same” (Hanall Biopharma Co., Ltd., priority 2007, dated 2014).

Assays:
HepG2 cells [1] = experiment: Measurement of cholesterol synthesis ability (Amplex red fluorescence); format: cell-based; conditions: Homo sapiens; 100 uM, HepG2 cells, 24 h treatment; lower is better; read-out: cholesterol synthesis ability, % control
Description: (§1) Metformin that is widely used in type 2 diabetic patients inhibits the formation of glucose, the synthesis of cholesterol and triglyceride in liver cells and promote the absorption of glucose from blood vessels in the muscle cells. […] In the case of the ability to form cholesterol, triglyceride and glucose, the lower the numerical value, the better the effect. Numerical values for a control group become reference values.
(§2) As a hepatic cell model, HepG2 cells were used to measure cholesterol synthesis inhibitory ability, which is the important function of AMPK. The hepatic cell model HepG2 cells were cultured in 1% serum-containing media for 24 hours, and then treated with each of the compounds for 24 hours. Then, the cells were disrupted with lysis buffer (0.1 M potassium phosphate, pH 7.4, 0.05 M NaCl, 5 mM cholic acid, 0.1% Triton X-100). To the disrupted cells, the same volume of a reaction solution (2 U/ml cholesterol oxidizing agent, 2 U/ml peroxidase, 0.2 U/ml cholesterol esterase, and 300 μM Amplex red as a fluorescent factor) was added and allowed to react at 37° C. for 30 minutes. After completion of the reaction, the cells were measured with a fluorometer at a wavelength of 560/590 nm (ex/em), thus quantifying the amount of […] formed in the cells. A lower measurement value means an increased lipid production inhibitory ability.

HepG2 cells [2] = experiment: Measurement of triglyceride (Amplex red fluorescence); format: cell-based; conditions: Homo sapiens, 100 uM, 24 h treatment, lower is better, read-out: triglyceride synthesis ability, % control
Protocol: as §1
as §2, with “model,” for “model, HepG2 cells were used to measure cholesterol synthesis inhibitory ability, which is the important function of AMPK. The hepatic cell model”, “(0.1M” for “(0.1 M”, “(0.76” for “(2”, “glycerol kinase, […] peroxidase, 22.2 U/ml glycerol” for “cholesterol”, “agent,” for “agent, 2 U/ml peroxidase, 0.2 U/ml cholesterol esterase,”

HepG2 cells [3] = experiment: Measurement of gluconeogenesis (14C-lactate); format: cell-based; conditions: Homo sapiens, 100 uM, 24 h treatment, lower is better, read-out: gluconeogenesis (glucose synthesis ability), % control
Protocol: as §1
As a hepatic cell model, HepG2 cells were cultured in 10% serum-containing high glucose media, and then treated with each of the compounds for 24 hours. Then, the cells were treated with 0.5 uCi 14C-lactate and 10 mM L-lactate, and cultured for 4 hours. After cultivation, the media of the cells were removed, and the cells were washed with PBS, treated with 0.1N NaOH and left to stand at room temperature for 1 hour. Then, the cells were neutralized with 1N HCl, and the amount of glucose formed in the cells was measured with a liquid scintillation counter. […] A lower measurement value means a stronger blood glucose lowering activity.

C2C12 cells = experiment: Measurement of glucose absorption (3H-deoxy-glucose); format: cell-based; conditions: for activity at 100 µM: Mus musculus, differentiated C2C12 muscle cells, with 1 μM insulin 24 h, higher is better, read-out: glucose absorption, % control; for effect of reducing insulin resistance, times better than the control group: absorption effect divided by average percent of control group (metformin 2 mM), multiplied by 20
Description: as §1
As a muscle cell model, C2C12 cells were induced to differentiate into muscle cells in 2% bovine fetal serum for 6 days. The C2C12 cells which differentiated into muscle cells were treated with each of the compounds in serum-free low glucose media, and then cultured with 1 μM of insulin for 24 hours. After cultivation, the cells were treated with 1 μCi 3H-deoxy-glucose and 10 μM deoxy-glucose at 37° C. for 15 minutes. After treatment, the media were removed, and the cells were washed twice with PBS. The washed cells were treated with 0.1 N NaOH and neutralized with 1N HCl. The amount of glucose absorbed into the cells was measured with a liquid scintillation counter. The effect of the compounds was determined by selecting a compound showing an absorption effect of at least 200%, dividing the absorption effect by the average percent of the control group, and then multiplying the divided value by […]. A higher measurement value means a stronger ability to reduce insulin resistance.

Row | melting point [°C] | SMILES | activity at 100 µM (HepG2 cells [1]) [%] | activity at 100 µM (HepG2 cells [2]) [%] | activity at 100 µM (HepG2 cells [3]) [%] | activity at 100 µM (C2C12 cells) [%] | effect of reducing insulin resistance, times better than the control group (C2C12 cells)
1 | 132 to 139 | CN(C)c1nc(N)nc(N2CCN(c3ccccc3)CC2)n1 [Example 39, N2,N2-dimethyl-6-(4-phenylpiperazin-1-yl)-1,3,5-triazine-2,4-diamine] | 55.8 | 95.3 | 77.4 | 115 | –
2 | 173 to 182 | CN(C)c1nc(N)nc(N2CCN(c3ccc([N+](=O)[O-])cc3)CC2)n1 [Example 40, N2,N2-dimethyl-6-(4-(4-nitrophenyl)piperazin-1-yl)-1,3,5-triazine-2,4-diamine] | 62.2 | 110 | 39.8 | 245 | about 14 times
3 | 119 to 120 | CN(C)c1nc(N)nc(NC2CCCCC2)n1 [Example 41, N2-cyclohexyl-N4,N4-dimethyl-1,3,5-triazine-2,4,6-triamine] | 70.8 | 90.9 | 90.6 | 263 | about 16 times
4 | 307 to 312 | CN(C)c1nc(N)nc(Nc2ccccc2O)n1 [Example 43, 2-(4-amino-6-(dimethylamino)-1,3,5-triazine-2-ylamino)phenol] | 41.1 | 77 | 83.5 | 186 | –
